This assay addresses fructosyl amino acid oxidase from Phaeosphaeria nodorum (PnFPOX, SEQ ID NO: 1) variant N56A (Parastagonospora nodorum, UniProt Q0UIL6, N56A). As to the kind of experiment: Oxidase activity kinetics (4AA/TODB/POD), PnFPOX N56A mutant. The class given is biochemical. The conditions noted are these: purified enzyme, 25° C., pH 7.0. An excerpt:
As used herein “oxidase activity” is an enzymatic activity (Vmax) of the fructosyl amino acid oxidase to catalyze oxidation of fructosyl amino acid to generate 2-keto-D-glucose and the corresponding amino acid while utilizing oxygen as an electron acceptor. The oxidase activity may be assayed by measuring the amount of generated H2O2 by any methods known in the art, including by way of non-limiting example, reagents for H2O2 detection such as […] (4-aminoantipyrine/N,N-Bis(4-sulfobutyl)-3-methylaniline disodium salt/horseradish peroxidase) or by Pt electrode. As used herein in the context of the relative or quantitative activity, the oxidase activity is specifically defined to be the mole amount of the substrate (fructosyl amino acid) oxidized per unit time measured by the amount of generated H2O2 at 25° C. in 10 mM PPB, pH 7.0, 1.5 mM TODB, 2 U/ml horseradish peroxidase (POD), and 1.5 mM 4-aminoantipyrine (4AA). The formation of quinoneimine dye may be measured spectrophotometrically at 546 nm.
Escherichia coli BL21 (DE3) cells harboring expression vectors of N1-1 FAOD (SEQ ID NO: 2) mutants were grown in 150 ml of LB medium containing 50 μg/ml kanamycin at 37° C. After reaching an A660 value of 0.6, 0.3 mM IPTG was added and incubated at 25° C. for an additional 5 hours. The cells were collected by centrifugation and washed twice with 0.85% NaCl.aq. Then, the cells were resuspended in 10 mM Potassium Phosphate Buffer (PPB) pH 7.0 and lysed by ultrasonic homogenizer. The lysate was centrifuged at 10,000×g, 4° C. for 10 min, and the supernatant was centrifuged at 50,000 rpm, 4° C. for 60 min, then the supernatant was dialyzed against 10 mM PPB (pH 7.0). The oxidase activity was assayed at 25° C. in 10 mM PPB, pH 7.0, 1.5 mM TODB, 2 U/ml horseradish peroxidase (POD), and 1.5 mM 4-aminoantipyrine (4AA) in the presence of substrates (0.2, 0.5, 0.75, 1, 2, 5 mM f-^αVal […]). The formation of quinoneimine dye was measured spectrophotometrically at 546 nm. The dehydrogenase activity was assayed at 25° C. in 10 mM PPB (pH 7.0), 0.6 mM DCIP, and 6 mM methoxy PMS (mPMS) in the presence of substrates (0.2, 0.5, 1, 2, 5 mM f-^αVal or 5 mM f-^αVal-His).
Mutations were introduced using site-directed mutagenesis as in Example 1, and BL21 (DE3) cells were transformed with an expression vector containing wild-type or mutant PnFPOX (SEQ ID NO: 1). The cultured cells were resuspended in 10 mM PPB, pH 7.0, and lysed by sonication. The lysate was centrifuged at 10,000 g at 4° C. for 20 min, and the supernatant was centrifuged at 50,000 rpm at 4° C. for 60 min. The oxidase and dehydrogenase activities were measured as in Example 1.
BL21 (DE3) transformed with pEPN (pET28a-PnFPOX)-N56A was grown aerobically at 37° C. in LB medium (2 l) containing 50 μg kanamycin ml^−1. […]

The structures appear in SMILES notation.

fructosyl amino acid oxidase from Phaeosphaeria nodorum (PnFPOX, SEQ ID NO: 1) variant N56A, sequence (Q0UIL6 whole entry N56A): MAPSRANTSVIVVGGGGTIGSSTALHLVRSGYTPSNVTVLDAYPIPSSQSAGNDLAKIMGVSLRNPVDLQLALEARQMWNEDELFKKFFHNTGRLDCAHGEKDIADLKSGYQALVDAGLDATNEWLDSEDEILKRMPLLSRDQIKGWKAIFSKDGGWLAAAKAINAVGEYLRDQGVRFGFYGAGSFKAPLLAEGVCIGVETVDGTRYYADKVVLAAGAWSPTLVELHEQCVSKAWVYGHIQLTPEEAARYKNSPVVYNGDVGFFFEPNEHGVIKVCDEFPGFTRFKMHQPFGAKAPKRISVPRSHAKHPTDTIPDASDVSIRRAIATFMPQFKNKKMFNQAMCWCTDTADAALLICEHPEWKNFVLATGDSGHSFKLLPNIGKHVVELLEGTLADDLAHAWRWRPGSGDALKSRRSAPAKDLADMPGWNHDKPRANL

As for `CC(C)[C@H](NCC1(O)OC[C@@H](O)[C@@H](O)[C@@H]1O)C(=O)O` (stereo partly shown) [f-αVal, fructosyl valine], the Vmax amounted to 4.39 U/mg.

The record behind these values is patent US8497083B2, “Fructosyl amino acid oxidase” (priority 2009, dated 2013).
